Read-outs that look alike come from different tables or passages of the source.
How the values were obtained:
[1] = Pharmacokinetics of parent HHQ16 after single intragastric administration of compound 2 prodrugs in rats; format: in vivo, rat; conditions: HHQ16 (parent) measured in rats after single intragastric 10 mg/kg of prodrug (dose converted to HHQ16)
Procedure: 1. The materials and methods for oral absorption test are the same as described in example 44.
The pharmacokinetic parameters of HHQ16 measured after a single intragastric administration of 10 mg/kg of compound 2 prodrug in rats are summarized in Table 2 below.
The half-life was prolonged to varying degrees.

[2] = Solubility test in water and FaSSIF; format: physicochemical; conditions: 37° C., up to 24 hours
[3] = system: chronic heart failure mice; assay: Pharmacodynamic comparison of LCZ696 and compound 2 in chronic heart failure mice (echocardiography); format: in vivo
From the text: With EF<50%, chronic heart failure mice were selected.
The mice were detected by cardiac ultrasound after 28 days of administration.

[4] = 100 mg/kg, after 28 days of administration
[5] = Positive control 1 (LCZ696, probably 60 mg/kg), Day 0
[6] = Positive control 1 (LCZ696, probably 60 mg/kg), Day 28
[7] = Positive control 2 (LCZ696, probably 100 mg/kg), Day 0
[8] = Positive control 2 (LCZ696, probably 100 mg/kg), Day 28
[9] = chronic heart failure mice (FIG. 9)

2-(((2aR,3R,4S,5aS,5bS,7S,7aR,11aR,12aS)-9,9-difluoro-4-hydroxy-3-((2S,5S)-5-(2-hydroxypropan-2-yl)-2-methyltetrahydrofuran-2-yl)-2a,5a,8,8-tetramethyltetradecahydro-1H,12H-cyclopenta[a]cyclopropa[e]phenanthren-7-yl)oxy)-N-methyl-2-oxoethan-1-aminium Chloride [Compound 2-6]
AUC0-t [1]: 3525 ng·h/mL | Cmax [1]: 433 ng/mL | t1/2 [1]: 4.2 h

3-(((2aR,3R,4S,5aS,5bS,7S,7aR,11aR,12aS)-9,9-difluoro-4-hydroxy-3-((2S,5S)-5-(2-hydroxypropan-2-yl)-2-methyltetrahydrofuran-2-yl)-2a,5a,8,8-tetramethyltetradecahydro-1H,12H-cyclopenta[a]cyclopropa[e]phenanthren-7-yl)oxy)-3-oxopropan-1-aminium Chloride [Compound 2-1]
AUC0-t [1]: 2955 ng·h/mL | Cmax [1]: 455 ng/mL | t1/2 [1]: 3.52 h

CC(C)C(N)C(=O)OC1CC2C3(C)CC(O)C(C4(C)CCC(C(C)(C)O)O4)C3(C)CCC23CC32CCC(F)(F)C(C)(C)C12.Cl (mixture of isomers) [Compound 2-15, 1-(((2aR,3R,4S,5aS,5bS,7S,7aR,11aR,12aS)-9,9-difluoro-4-hydroxy-3-((2S,5S)-5-(2-hydroxypropan-2-yl)-2-methyltetrahydrofuran-2-yl)-2a,5a,8,8-tetramethyltetradecahydro-1H,12H-cyclopenta[a]cyclopropa[e]phenanthren-7-yl)oxy)-3-methyl-1-oxobutan-2-aminium Chloride]
Solubility ([2]; FaSSIF (pH 6.5)): 3020 µg/mL | Solubility ([2]; Water): 770 µg/mL | AUC0-t [1]: 4500 ng·h/mL | Cmax [1]: 451 ng/mL | t1/2 [1]: 8.2 h

CC(C)(O)[C@@H]1CC[C@@](C)([C@H]2[C@@H](O)C[C@@]3(C)[C@@H]4C[C@H](OC(=O)[C@@H](N)CCCCN)[C@H]5C(C)(C)C(F)(F)CC[C@@]56C[C@@]46CC[C@]23C)O1.Cl.Cl [Compound 2-26, (S)-6-(((2aR,3R,4S,5aS,5bS,7S,7aR,11aR,12aS)-9,9-difluoro-4-hydroxy-3-((2S,5S)-5-(2-hydroxypropan-2-yl)-2-methyltetrahydrofuran-2-yl)-2a,5a,8,8-tetramethyltetradecahydro-1H,12H-cyclopenta[a]cyclopropa[e]phenanthren-7-yl)oxy)-6-oxohexane-1,5-diaminium Chloride]
Solubility ([2]; FaSSIF (pH 6.5)): 6600 µg/mL | Solubility ([2]; Water): 2100 µg/mL

Br.CC(C)(O)C1CCC(C)(C2C(O)CC3(C)C4CC(OC(=O)CNC(=O)C(N)CS)C5C(C)(C)C(F)(F)CCC56CC46CCC23C)O1 [Compound 2-32, (R)-1-((2-(((2aR,3R,4S,5aS,5bS,7S,7aR,11aR,12aS)-9,9-difluoro-4-hydroxy-3-((2S,5S)-5-(2-hydroxypropan-2-yl)-2-methyltetrahydrofuran-2-yl)-2a,5a,8,8-tetramethyltetradecahydro-1H,12H-cyclopenta[a]cyclopropa[e]phenanthren-7-yl)oxy)-2-oxoethyl)amino)-3-mercapto-1-oxopropan-2-aminium bromide]
Solubility ([2]; FaSSIF (pH 6.5)): 4960 µg/mL

Br.CN(CC(=O)O[C@H]1C[C@@H]2[C@]3(CC[C@]4(C)[C@@H]([C@]5(C)CC[C@@H](C(C)(C)O)O5)[C@@H](O)C[C@@]24C)C[C@@]32CCC(F)(F)C(C)(C)[C@H]12)C(=O)[C@H](N)CC(=O)O [Compound 2-33, (R)-3-carboxy-1-((2-(((2aR,3R,4S,5aS,5bS,7S,7aR,11aR,12aS)-9,9-difluoro-4-hydroxy-3-((2S,5S)-5-(2-hydroxypropan-2-yl)-2-methyltetrahydrofuran-2-yl)-2a,5a,8,8-tetramethyltetradecahydro-1H,12H-cyclopenta[a]cyclopropa[e]phenanthren-7-yl)oxy)-2-oxoethyl)(methyl)amino)-1-oxopropan-2-aminium bromide]
Solubility ([2]; FaSSIF (pH 6.5)): 6800 µg/mL | Solubility ([2]; Water): 2100 µg/mL

CC(NC(=O)C(N)CC(N)=O)C(=O)OC1CC2C3(C)CC(O)C(C4(C)CCC(C(C)(C)O)O4)C3(C)CCC23CC32CCC(F)(F)C(C)(C)C12.Cl [Compound 2-34, (S)-4-amino-1-(((S)-1-(((2aR,3R,4S,5aS,5bS,7S,7aR,11aR,12aS)-9,9-difluoro-4-hydroxy-3-((2S,5S)-5-(2-hydroxypropan-2-yl)-2-methyltetrahydrofuran-2-yl)-2a,5a,8,8-tetramethyltetradecahydro-1H,12H-cyclopenta[a]cyclopropa[e]phenanthren-7-yl)oxy)-1-oxopropan-2-yl)amino)-1,4-di oxobutan-2-aminium chloride]
Solubility ([2]; FaSSIF (pH 6.5)): 3200 µg/mL | Solubility ([2]; Water): 1180 µg/mL

C[C@@H](N)C(=O)N[C@H](C)C(=O)O[C@H]1C[C@@H]2[C@]3(CC[C@]4(C)[C@@H]([C@]5(C)CC[C@@H](C(C)(C)O)O5)[C@@H](O)C[C@@]24C)C[C@@]32CCC(F)(F)C(C)(C)[C@H]12.I [Compound 2-35, (R)-1-(((R)-1-(((2aR,3R,4S,5aS,5bS,7S,7aR,11aR,12aS)-9,9-difluoro-4-hydroxy-3-((2 S,5S)-5-(2-hydroxypropan-2-yl)-2-methyltetrahydrofuran-2-yl)-2a,5a,8,8-tetramethyltetradecahydro-1H,12H-cyclopenta[a]cyclopropa[e]phenanthren-7-yl)oxy)-1-oxopropan-2-yl)amino)-1-oxopropan-2-aminium iodide]
Solubility ([2]; FaSSIF (pH 6.5)): 3140 µg/mL | Solubility ([2]; Water): 1350 µg/mL

CC(C)(O)C1CCC(C)(C2C(O)CC3(C)C4CC(OP(=O)([O-])O)C5C(C)(C)C(F)(F)CCC56CC46CCC23C)O1.[Na+] [Compound 3-1, Monosodium Mono((2aR,3R,4S,5aS,5bS,7S,7aR,11aR,12aS)-9,9-difluoro-4-hydroxy-3-((2S,5S)-5-(2-hydroxypropan-2-yl)-2-methyltetrahydrofuran-2-yl)-2a,5a,8,8-tetramethyltetradecahydro-1H,12H-cyclopenta[a]cyclopropa[e]phenanthren-7-yl phosphate)]
Solubility ([2]; FaSSIF (pH 6.5)): 15800 µg/mL | Solubility ([2]; Water): 11500 µg/mL

CC(C)(O)C1CCC(C)(C2C(O)CC3(C)C4CC(OP(=O)(O)O)C5C(C)(C)C(F)(F)CCC56CC46CCC23C)O1.N [Compound 3-2, Ammonium (2aR,3R,4S,5aS,5bS,7S,7aR,11aR,12aS)-9,9-difluoro-4-hydroxy-3-((2S,5S)-5-(2-hydroxypropan-2-yl)-2-methyltetrahydrofuran-2-yl)-2a,5a,8,8-tetramethyltetradecahydro-1H,12H-cyclopenta[a]cyclopropa[e]phenanthren-7-yl phosphate]
Solubility ([2]; FaSSIF (pH 6.5)): 22300 µg/mL | Solubility ([2]; Water): 12600 µg/mL

CC(C)(O)[C@@H]1CC[C@@](C)([C@H]2[C@@H](O)C[C@@]3(C)[C@@H]4C[C@H](OP(=O)(O)O)[C@H]5C(C)(C)C(F)(F)CC[C@@]56C[C@@]46CC[C@]23C)O1 [Compound 11, (2aR,3R,4S,5aS,5bS,7S,7aR,11aR,12aS)-9,9-difluoro-4-hydroxy-3-((2S,5S)-5-(2-hydroxypropan-2-yl)-2-methyltetrahydrofuran-2-yl)-2a,5a,8,8-tetramethyltetradecahydro-1H,12H-cyclopenta[a]cyclopropa[e]phenanthren-7-yl dihydrogen phosphate]
Solubility ([2]; thermodynamic from solid, FaSSIF (pH 6.5), read-out: Solubility): 3200 µg/mL | Solubility ([2]; thermodynamic from solid, Water, read-out: Solubility): 790 µg/mL

(S)-1-(((2aR,3R,4S,5aS,5bS,7S,7aR,11aR,12aS)-9,9-difluoro-4-hydroxy-3-((2S,5S)-5-(2-hydroxypropan-2-yl)-2-methyltetrahydrofuran-2-yl)-2a,5a,8,8-tetramethyltetradecahydro-1H,12H-cyclopenta[a]cyclopropa[e]phenanthren-7-yl)oxy)-1-oxopropan-2-aminium Chloride [Compound 2-17]
AUC0-t [1]: 5222 ng·h/mL | Cmax [1]: 501 ng/mL | t1/2 [1]: 7.8 h

sacubitril valsartan sodium [LCZ696]
left ventricular ejection fraction EF % increased by ([3]; 60 mg/kg, after 28 days of administration): 33.14% | FS % [3, 4]: significantly increased | left ventricular ejection fraction EF % increased by [3, 4]: 45.36% | CO [3, 5]: 30.83 ± 2.77 mL/min | EF [3, 5]: 23.49 ± 3.96% | FS [3, 5]: 9.31 ± 1.8% | HR [3, 5]: 575.58 ± 11.44 times/min | CO [3, 6]: 30.17 ± 1.85 mL/min | EF [3, 6]: 31.27 ± 5.36% | FS [3, 6]: 12.93 ± 2.66% | HR [3, 6]: 531.4 ± 19.6 times/min | CO [3, 7]: 35.4 ± 3.19 mL/min | EF [3, 7]: 22.89 ± 2.06% | FS [3, 7]: 9.24 ± 0.86 % | HR [3, 7]: 553.5 ± 10.76 times/min | CO [3, 8]: 39.02 ± 4.26 mL/min | EF [3, 8]: 34.72 ± 5.06% | FS [3, 8]: 14.76 ± 2.86% | HR [3, 8]: 550.17 ± 12.72 times/min | Cardiac output per minute (CO), day 28 vs day 0 (words) [3, 9]: not statistically significant | Heart rate (HR), day 28 vs day 0 [3, 9]: no significant change | EF, day 28 vs day 0 (words) ([3]; chronic heart failure mice, p<0.0005 (FIG. 8)): significantly increased
